Results: PubChem BioAssay (NCI)
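The compound was tested at five concentrations on cells cultured in 96-well plates, with a 48-hour exposure period. GI50 is the concentration that inhibits growth by half. Definition used: TGI = concentration required for complete inhibition of growth.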

What was measured:
Assay in all cases: growth of human tumour cells (NCI), 48 h
MOLT-4 leukemia = system: MOLT-4 leukemia
RXF 393 renal = system: RXF 393 renal
NCI-H522 lung = system: NCI-H522 lung
OVCAR-4 ovarian = system: OVCAR-4 ovarian
NCI-H23 lung = system: NCI-H23 lung
786-0 renal = system: 786-0 renal
SF-295 CNS = system: SF-295 CNS
SK-OV-3 ovarian = system: SK-OV-3 ovarian
TK-10 renal = system: TK-10 renal
IGROV1 ovarian = system: IGROV1 ovarian
SW-620 colon = system: SW-620 colon
RPMI-8226 leukemia = system: RPMI-8226 leukemia
SF-539 CNS = system: SF-539 CNS
DU-145 prostate = system: DU-145 prostate
CCRF-CEM leukemia = system: CCRF-CEM leukemia
HOP-92 NSCLC = system: HOP-92 NSCLC
UACC-257 melanoma = system: UACC-257 melanoma
SF-268 CNS = system: SF-268 CNS
SNB-75 CNS = system: SNB-75 CNS
UACC-62 melanoma = system: UACC-62 melanoma
BT-549 breast = system: BT-549 breast
LOX IMVI melanoma = system: LOX IMVI melanoma
SK-MEL-5 melanoma = system: SK-MEL-5 melanoma
A498 renal = system: A498 renal
MCF7 breast = system: MCF7 breast
PC-3 prostate = system: PC-3 prostate
OVCAR-5 ovarian = system: OVCAR-5 ovarian
U251 CNS = system: U251 CNS

O=C(NNc1nc2cc(F)c(F)cc2n2c(CN3CC4CNCC4C3)ccc12)c1ncccn1 (stereo unspecified) was tested, and the GI50 (MOLT-4 leukemia) was 3.14 µM, the TGI (MOLT-4 leukemia) was > 100 µM and the GI50 (RXF 393 renal) was 2 µM. The TGI (RXF 393 renal) was 9.33 µM, the GI50 (NCI-H522 lung) was 4.37 µM and the TGI (NCI-H522 lung) was 21.2 µM. The GI50 (OVCAR-4 ovarian) was 2.8 µM, the TGI (OVCAR-4 ovarian) was 17.9 µM and the GI50 (NCI-H23 lung) was 3.48 µM. For the same molecule, the TGI (NCI-H23 lung) was 16.2 µM, the GI50 (786-0 renal) was 2.18 µM and the TGI (786-0 renal) was 9.02 µM. The GI50 (SF-295 CNS) was 0.847 µM, the TGI (SF-295 CNS) was 12.5 µM and the GI50 (SK-OV-3 ovarian) was 1.96 µM. The TGI (SK-OV-3 ovarian) was 14.8 µM, the GI50 (TK-10 renal) was 7.89 µM and the TGI (TK-10 renal) was 29.7 µM. The GI50 (IGROV1 ovarian) was 1.85 µM, the TGI (IGROV1 ovarian) was 12.3 µM and the GI50 (SW-620 colon) was 2.48 µM. The TGI (SW-620 colon) was 16.1 µM, the GI50 (RPMI-8226 leukemia) was 3.69 µM and the TGI (RPMI-8226 leukemia) was 55.7 µM. It also gave a GI50 (SF-539 CNS) of 2.76 µM, a TGI (SF-539 CNS) of 9.5 µM and a GI50 (DU-145 prostate) of 2.31 µM. The TGI (DU-145 prostate) was 16.1 µM, the GI50 (CCRF-CEM leukemia) was 1.86 µM and the TGI (CCRF-CEM leukemia) was > 100 µM. For the same molecule, the GI50 (HOP-92 NSCLC) was 6.46 µM, the TGI (HOP-92 NSCLC) was 28.3 µM and the GI50 (UACC-257 melanoma) was 2.8 µM. The TGI (UACC-257 melanoma) was 9.36 µM, the GI50 (SF-268 CNS) was 1.87 µM and the TGI (SF-268 CNS) was 14.8 µM. It also gave a GI50 (SNB-75 CNS) of 2.19 µM, a TGI (SNB-75 CNS) of 13.6 µM and a GI50 (UACC-62 melanoma) of 2.57 µM. It also gave a TGI (UACC-62 melanoma) of 11.6 µM, a GI50 (BT-549 breast) of 4.47 µM and a TGI (BT-549 breast) of 18.7 µM. For the same molecule, the GI50 (LOX IMVI melanoma) was 1.06 µM, the TGI (LOX IMVI melanoma) was 5.21 µM and the GI50 (SK-MEL-5 melanoma) was 1.65 µM. For the same molecule, the TGI (SK-MEL-5 melanoma) was 4.4 µM, the GI50 (A498 renal) was 2.36 µM and the TGI (A498 renal) was 8.64 µM. The GI50 (MCF7 breast) was 3.07 µM, the TGI (MCF7 breast) was 14 µM and the GI50 (PC-3 prostate) was 3.22 µM. For the same molecule, the TGI (PC-3 prostate) was 39.6 µM, the GI50 (OVCAR-5 ovarian) was 5.08 µM and the TGI (OVCAR-5 ovarian) was 25.4 µM. For the same molecule, the GI50 (U251 CNS) was 1.9 µM and the TGI (U251 CNS) was 14.6 µM.
